In brackets after ≈: the same amount, converted by molar mass.
Columns and labels:
Assay in all cases: ≥ marks a high value that may be exact or a test limit, other limits are often not marked, values filed in µg/mL are converted to µM
[1] = system: Staphylococcus aureus ATCC 2592
Escherichia coli B = system: Escherichia coli B
Bacillus subtilis 168 = system: Bacillus subtilis 168
Staphylococcus aureus = system: Staphylococcus aureus
Pseudomonas aeruginosa = system: Pseudomonas aeruginosa
[2] = system: Escherichia coli ATCC 25922
[3] = system: Bacillus subtilis ATCC 23857
[4] = system: Klebsiella pneumoniae ATCC 700603
[5] = system: Staphylococcus aureus ATCC 25923
[6] = system: Pseudomonas aeruginosa ATCC 9027
[7] = system: Staphylococcus aureus ATCC 29213
[8] = system: Salmonella enterica subsp. enterica serovar Typhimurium C77-31
[9] = system: Salmonella enterica subsp. enterica serovar Pullorum C79-13
[10] = system: Enterococcus faecalis ATCC 29212
[11] = system: Staphylococcus epidermidis ATCC 12228
[12] = system: Bacillus subtilis ATCC 6633
Candida albicans = system: Candida albicans
[13] = system: Pseudomonas aeruginosa ATCC 27853
[14] = system: Candida albicans ATCC 10231
[15] = system: Acinetobacter baumannii ATCC 19606

`CC[C@H](C)[C@@H]1NC(=O)[C@H](CO)NC(=O)[C@H](CCCCN)NC(=O)[C@H]([C@@H](C)O)NC(=O)[C@H](Cc2c[nH]c3ccccc23)NC(=O)[C@@H](NC(=O)CN)CSSC[C@@H](C(=O)N[C@@H](Cc2ccccc2)C(=O)O)NC(=O)[C@@H]2CCCN2C(=O)[C@H](CCCCN)NC(=O)[C@@H]2CCCN2C(=O)[C@@H]2CCCN2C1=O` [GCWTKSIPPKPCF] was tested. Which MIC [1] did it give?
Its MIC is 2.22 µM (≈ 3.25 µg/mL).

Which MIC (Escherichia coli B) does the source give for `CC[C@H](C)[C@H](N)C(=O)N[C@@H](CC(C)C)C(=O)NCC(=O)N[C@@H](CCCCN)C(=O)N[C@H](C(=O)N[C@H](C(=O)N[C@@H](CCCCN)C(=O)N[C@H](C(=O)N[C@H](C(=O)N[C@@H](CCCCN)C(N)=O)C(C)C)C(C)C)[C@@H](C)CC)[C@@H](C)CC` [ILGKIIKVVK] here?
Its MIC is at least 40 µM.

And the MIC (Bacillus subtilis 168)?
The MIC was at least 40 µM.

And the MIC (Staphylococcus aureus)?
The MIC was over 100 µM.

What about the MIC (Pseudomonas aeruginosa) of the same compound?
Its MIC is over 100 µM.

`CC[C@H](C)[C@H](NC(=O)[C@H](CCCCN)NC(=O)[C@H](CCCCN)NC(=O)[C@H](C)NC(=O)[C@@H](NC(=O)[C@H](CCCCN)NC(=O)[C@H](CC(C)C)NC(=O)[C@H](CC(C)C)NC(=O)[C@H](CCCCN)NC(=O)[C@H](CCCCN)NC(=O)[C@H](CC(C)C)NC(=O)[C@H](CC(N)=O)NC(=O)[C@@H](N)CC(C)C)C(C)C)C(=O)N[C@@H](CC(C)C)C(N)=O` [LNLKKLLKVAKKIL] was tested. Which MIC [2] did it give?
Its MIC is 8 µM (≈ 13 µg/mL).

What about the MIC [3] of the same compound?
The MIC was 4 µM (≈ 6.48 µg/mL).

What about the MIC [4] of the same compound?
The MIC was 8 µM (≈ 13 µg/mL).

What about the MIC [5] of the same compound?
The MIC was 16 µM (≈ 25.9 µg/mL).

And the MIC [6]?
The MIC was 4 µM (≈ 6.48 µg/mL).

`CC[C@H](C)[C@H](NC(=O)[C@H](CCCCN)NC(=O)[C@H](CCCCN)NC(=O)[C@H](Cc1c[nH]c2ccccc12)NC(=O)[C@H](CC(N)=O)NC(=O)[C@@H](N)C(C)C)C(=O)N[C@@H](CC(C)C)C(=O)NCC(N)=O` [VNWKKILG] was tested. Which MIC (Escherichia coli B) did it give?
The MIC was at least 100 µM.

What about the MIC (Bacillus subtilis 168) of the same compound?
Its MIC is at least 200 µM.

What about the MIC (Staphylococcus aureus) of the same compound?
Its MIC is over 100 µM.

And the MIC (Pseudomonas aeruginosa)?
Its MIC is over 100 µM.

What does the source list for `CC(C)C[C@H](NC(=O)[C@@H](NC(=O)[C@@H](NC(=O)[C@@H](N)CC(C)C)C(C)C)[C@@H](C)O)C(=O)N[C@H](C(=O)N[C@@H](Cc1ccccc1)C(=O)N[C@H](C(=O)NCC(=O)NCC(=O)NCC(=O)N[C@@H](Cc1c[nH]c2ccccc12)C(=O)N[C@@H](CCCCN)C(=O)N[C@@H](Cc1c[nH]c2ccccc12)C(=O)N[C@@H](CCCCN)C(=O)N[C@@H](Cc1c[nH]c2ccccc12)C(=O)N[C@@H](CCC(=O)O)C(=O)N[C@@H](CC(N)=O)C(=O)NCC(=O)N[C@@H](CCCCN)C(=O)N[C@@H](Cc1c[nH]c2ccccc12)C(=O)N[C@@H](CCCCN)C(=O)N[C@@H](Cc1c[nH]c2ccccc12)C(=O)N[C@@H](CCCCN)C(=O)N[C@@H](Cc1c[nH]c2ccccc12)C(=O)O)C(C)C)C(C)C` [LVTLVFVGGGWKWKWENGKWKWKW]?
MIC [7]: > 128 µM; MIC [2]: 64 µM (≈ 193 µg/mL); MIC [8]: ≥ 128 µM; MIC [9]: ≥ 128 µM; MIC [10]: 8 µM (≈ 24.2 µg/mL); MIC [11]: > 128 µM

With `CC[C@H](C)[C@H](NC(=O)[C@H](Cc1cnc[nH]1)NC(=O)[C@H](CCCCN)NC(=O)[C@H](CC(C)C)NC(=O)[C@H](CC(C)C)NC(=O)[C@H](CO)NC(=O)[C@H](CCSC)NC(=O)[C@H](Cc1c[nH]c2ccccc12)NC(=O)[C@H](CCCCN)NC(=O)CN)C(=O)N[C@@H](Cc1c[nH]c2ccccc12)C(=O)N[C@@H](CCCCN)C(N)=O` [GKWMSLLKHIWK] as the compound, how does the MIC (Escherichia coli B) read?
The MIC was 5 µM (≈ 7.63 µg/mL).

What about the MIC (Bacillus subtilis 168) of the same compound?
The MIC was 1.3 µM (≈ 1.98 µg/mL).

And the MIC (Staphylococcus aureus)?
The MIC was 12.2 µM (≈ 18.6 µg/mL).

What about the MIC (Pseudomonas aeruginosa) of the same compound?
The MIC was 25 µM (≈ 38.1 µg/mL).

Which results are given for `CC[C@H](C)[C@H](NC(=O)[C@H](CO)NC(=O)[C@H](CC(C)C)NC(=O)[C@H](Cc1ccccc1)NC(=O)CN)C(=O)N[C@@H](CC(C)C)C(=O)N[C@@H](CCCCN)C(=O)N[C@@H](CCCCN)C(=O)N[C@H](C(=O)N[C@@H](CC(C)C)C(=O)N[C@@H](C)C(=O)N[C@@H](CCCCN)C(=O)N[C@H](C(=O)N[C@@H](CCSC)C(=O)N[C@@H](C)C(=O)N[C@@H](Cc1cnc[nH]1)C(=O)N[C@@H](CCSC)C(=O)N[C@@H](CCCCN)C(N)=O)C(C)C)C(C)C` [GFLSILKKVLAKVMAHMK]?
MIC (Escherichia coli B): 1.6 µM (≈ 3.22 µg/mL); MIC (Bacillus subtilis 168): 1.3 µM (≈ 2.62 µg/mL); MIC (Staphylococcus aureus): 4.7 µM (≈ 9.46 µg/mL); MIC (Pseudomonas aeruginosa): 18.3 µM (≈ 36.8 µg/mL)

What does the source list for `CC[C@H](C)[C@H](NC(=O)[C@H](CC(C)C)NC(=O)[C@H](Cc1cnc[nH]1)NC(=O)CNC(=O)[C@H](CC(C)C)NC(=O)[C@@H](NC(=O)[C@H](CCCCN)NC(=O)[C@H](CO)NC(=O)[C@@H](N)Cc1c[nH]c2ccccc12)[C@@H](C)CC)C(=O)N[C@@H](CCCN=C(N)N)C(N)=O` [WSKILGHLIR]?
MIC (Escherichia coli B): ≥ 100 µM; MIC (Bacillus subtilis 168): 18.3 µM (≈ 22.4 µg/mL); MIC (Staphylococcus aureus): > 100 µM; MIC (Pseudomonas aeruginosa): > 100 µM

For `CC[C@H](C)[C@H](NC(=O)[C@H](CC(C)C)NC(=O)[C@H](Cc1cnc[nH]1)NC(=O)[C@@H]1CCCN1C(=O)[C@H](CC(C)C)NC(=O)[C@@H](NC(=O)[C@H](CCCCN)NC(=O)[C@H](CO)NC(=O)[C@H](Cc1c[nH]c2ccccc12)NC(=O)[C@H](CCSC)NC(=O)CN)[C@@H](C)CC)C(=O)N[C@@H](CCCN=C(N)N)C(N)=O` [GMWSKILPHLIR], which MIC (Escherichia coli B) is on record?
The MIC was 20 µM (≈ 29 µg/mL).

What about the MIC (Bacillus subtilis 168) of the same compound?
Its MIC is 3.3 µM (≈ 4.78 µg/mL).

And the MIC (Staphylococcus aureus)?
Its MIC is over 100 µM.

What about the MIC (Pseudomonas aeruginosa) of the same compound?
The MIC was over 100 µM.

With `CC[C@H](C)[C@H](NC(=O)[C@H](CCCN=C(N)N)NC(=O)[C@H](CCCN=C(N)N)NC(=O)[C@H](C)NC(=O)[C@@H](NC(=O)[C@H](C)NC(=O)[C@H](CC(C)C)NC(=O)[C@H](CC(C)C)NC(=O)[C@H](C)NC(=O)[C@H](CCCN=C(N)N)NC(=O)[C@H](CC(C)C)NC(=O)[C@H](CC(N)=O)NC(=O)[C@@H](N)CC(C)C)C(C)C)C(=O)N[C@@H](CC(C)C)C(N)=O` [LNLRALLAVARRIL] as the compound, how does the MIC [2] read?
Its MIC is 4 µM (≈ 6.36 µg/mL).

What about the MIC [3] of the same compound?
Its MIC is 4 µM (≈ 6.36 µg/mL).

What about the MIC [4] of the same compound?
Its MIC is 16 µM (≈ 25.5 µg/mL).

And the MIC [5]?
The MIC was 4 µM (≈ 6.36 µg/mL).

And the MIC [6]?
The MIC was 8 µM (≈ 12.7 µg/mL).

With `CC[C@H](C)[C@H](NC(=O)[C@H](CCC(=O)O)NC(=O)[C@H](CCCCN)NC(=O)[C@H](CCSC)NC(=O)[C@H](CCCCN)NC(=O)[C@H](C)NC(=O)[C@H](CC(C)C)NC(=O)[C@H](Cc1ccccc1)NC(=O)[C@H](C)NC(=O)[C@H](CCC(N)=O)NC(=O)[C@H](CC(C)C)NC(=O)[C@H](CCCN=C(N)N)NC(=O)CN)C(=O)N[C@@H](C)C(=O)N[C@@H](C)C(=O)N[C@@H](CCC(N)=O)C(=O)N[C@H](C(=O)N[C@@H](CC(C)C)C(N)=O)[C@@H](C)O` [GRLQAFLAKMKEIAAQTL] as the compound, how does the MIC [2] read?
Its MIC is 4.44 µM (≈ 8.84 µg/mL).

What about the MIC [12] of the same compound?
The MIC was 2.22 µM (≈ 4.41 µg/mL).

And the MIC (Candida albicans)?
Its MIC is 1.77 µM (≈ 3.52 µg/mL).

And the MIC [13]?
Its MIC is 7.1 µM (≈ 14.1 µg/mL).

Which results are given for `CC(C)C[C@H](NC(=O)[C@H](CC(C)C)NC(=O)[C@H](CCCN=C(N)N)NC(=O)[C@H](CCCN=C(N)N)NC(=O)[C@H](CC(C)C)NC(=O)[C@@H](N)CC(C)C)C(=O)N[C@@H](CCCN=C(N)N)C(=O)N[C@@H](CCCN=C(N)N)C(N)=O` [LLRRLLRR]?
MIC [3]: ≥ 57.1 µM; MIC [14]: 114 µM (≈ 125 µg/mL)

With `CC[C@H](C)[C@H](NC(=O)[C@H](CCCCN)NC(=O)[C@H](CO)NC(=O)[C@H](Cc1c[nH]c2ccccc12)NC(=O)[C@H](CCSC)NC(=O)CN)C(=O)N[C@@H](CC(C)C)C(=O)NCC(=O)N[C@@H](Cc1cnc[nH]1)C(=O)N[C@@H](CC(C)C)C(=O)N[C@@H](CCCCN)C(=O)N[C@@H](CCCN=C(N)N)C(N)=O` [GMWSKILGHLKR] as the compound, how does the MIC (Escherichia coli B) read?
The MIC was 28.3 µM (≈ 40.3 µg/mL).

What about the MIC (Bacillus subtilis 168) of the same compound?
Its MIC is 2.2 µM (≈ 3.13 µg/mL).

What about the MIC (Staphylococcus aureus) of the same compound?
The MIC was 100 µM (≈ 142 µg/mL).

What about the MIC (Pseudomonas aeruginosa) of the same compound?
Its MIC is 93 µM (≈ 133 µg/mL).

Which results are given for `CC(C)C[C@H](NC(=O)[C@H](C)NC(=O)[C@@H](NC(=O)[C@H](CCCCN)NC(=O)[C@H](C)NC(=O)[C@H](CCCN=C(N)N)NC(=O)[C@H](CCCCN)NC(=O)[C@H](CC(C)C)NC(=O)[C@H](C)NC(=O)CN)[C@@H](C)O)C(N)=O` [GALKRAKTAL]?
MIC [2]: > 512 µM; MIC [3]: ≥ 512 µM; MIC [4]: > 512 µM; MIC [5]: > 512 µM; MIC [15]: > 512 µM; MIC [10]: > 512 µM; MIC [11]: > 512 µM; MIC [13]: > 512 µM

What does the source list for `CC[C@H](C)[C@H](NC(=O)[C@H](CCCN=C(N)N)NC(=O)[C@H](CCCCN)NC(=O)[C@H](Cc1ccccc1)NC(=O)[C@H](Cc1ccccc1)NC(=O)CN)C(=O)N[C@@H](CCCN=C(N)N)C(=O)N[C@H](C(=O)N[C@@H](Cc1ccccc1)C(=O)N[C@@H](Cc1ccccc1)C(N)=O)[C@@H](C)O` [GFFKRIRTFF]?
MIC [2]: 32 µM (≈ 42.2 µg/mL); MIC [3]: 16 µM (≈ 21.1 µg/mL); MIC [4]: 32 µM (≈ 42.2 µg/mL); MIC [5]: 16 µM (≈ 21.1 µg/mL); MIC [15]: 64 µM (≈ 84.3 µg/mL); MIC [10]: 64 µM (≈ 84.3 µg/mL); MIC [11]: 64 µM (≈ 84.3 µg/mL); MIC [13]: 4 µM (≈ 5.27 µg/mL)
